According to paper PMC10718076, “1,2-Disubstituted bicyclo[2.1.1]hexanes as saturated bioisosteres of ortho-substituted benzene” (Chemical Science, 2023):
In brackets after ≈: the same amount, converted by molar mass. Counter-ions that a name gives are not always drawn. Like-named read-outs stand apart in the source and are kept apart here.

Legend:
[1] = Metabolic stability in human liver microsomes; conditions: both; for remaining at 40 min, 2 µM: Mean of 2, 40 min
in vitro = conditions: both, human
[2] = Kinetic solubility in phosphate-buffered saline, pH 7.4; type: physicochemical; conditions: for solubility kinetic at 2 h / solubility at 2 h: 25 °C, pH 7.4, aqueous buffer, kinetic from dmso stock; for solubility at 2 h: PBS solubility
Procedure: Analysis of Aqueous Solubility […]
compound (Ondansetron) were assessed for kinetic solubility in phosphate -buffered saline, pH 7.4.
Phosphate buffered saline, pH 7.4 (Sigma -Aldrich, USA; Cat #P3813) […]
MultiScreen HTS 96 Well Filter Plates (Millipore, Ireland; Cat # MSSLBPC10) […]
Matrix Multichannel Electronic Pipette 2-125 μL, 5-250 μL, 15-1250 μL (Thermo Scientific, USA; […]
Vacuum pump (Millipore, USA; Model # XX5500000)
The measurements were performed using SpectraMax Plus reader in UV -Vis mode. Acquisition and […]
The measurements were performed using SpectraMax Paradigm reader in UV-Vis mode.
Acquisition and analysis of the data were performed using SoftMax Pro v.5.4 (Molecular Devices) […]
Kinetic solubility assay was performed according to the Enamine’s aqueous solubility SOP. Briefly, using a 20 mM stock solution of the compound in 100% DMSO dilutions were prepared to a theoretical concentration of 400 μM in duplicates in phosphate-buffered saline pH 7.4 […]
compound dilutions in PBS were further allowed to equilibrate at 25 °C on a thermostatic shaker for two hours and then filtered through HTS filter plates using a vacuum manifold. The filtrates of test compounds were diluted 2-fold with acetonitrile with 2% DMSO before measuring.
In parallel, compound dilutions in 50% acetonitrile/PBS were prepared to theoretical concentrations […]
calibration curves. Ondansetron was used as reference compound to control proper assay performance. 200 μl of each sample was transferred to 96-well plate and measured in 230-550 nm range with 5 nm step. The effective range of this assay is approximately 2-400 μM and the […]
The concentrations of compounds in PBS filtrate are calculated using a dedicated Microsoft Excel calculation script. Proper absorbance wavelengths for calculations are selected for each compound manually based on absorbance maximums (absolute absorbance unit values for the minimum and maximum concentration points within the 0 – 3 OD range). Each final dataset is visually evaluated by the operator, and goodness of fit (R2) is calculated for each calibration curve. […]
samples were diluted 2-fold with acetonitrile containing internal standard and were analyzed using the HPLC system coupled with a tandem mass spectrometer. The effective range of this assay is […]

[3] = system: Aspergillus niger (strain VURV-F 822); assay: Antifungal disk diffusion method; type: cell-based; conditions: for zone of inhibition at 4 µg/mL: Concentration 0.004 mg/mL, Boscalid, Bixafen marked st; for zone of inhibition at 4 µg/mL / zone of inhibition at 8 µg/mL / zone of inhibition at 16 µg/mL / zone of inhibition at 30 µg/mL / zone of inhibition at 60 µg/mL: 0 = absence of antifungal activity; for zone of inhibition at 4 µg/mL / zone of inhibition at 60 µg/mL: Fluxapyroxad; for zone of inhibition at 4 µg/mL / zone of inhibition at 8 µg/mL / zone of inhibition at 16 µg/mL / zone of inhibition at 30 µg/mL / zone of inhibition at 60 µg/mL / zone of inhibition at 120 µg/mL / zone of inhibition at 250 µg/mL / zone of inhibition at 500 µg/mL / zone of inhibition at 1000 µg/mL / zone of inhibition at 2000 µg/mL: read-out: Diameter of inhibition zone; for zone of inhibition at 8 µg/mL: Concentration 0.008 mg/mL; for zone of inhibition at 16 µg/mL: Concentration 0.016 mg/mL; for zone of inhibition at 30 µg/mL: Concentration 0.03 mg/mL; for zone of inhibition at 30 µg/mL / zone of inhibition at 60 µg/mL: (±)-29 marked st; for zone of inhibition at 60 µg/mL: Concentration 0.06 mg/mL, Bixafen; for zone of inhibition at 120 µg/mL: Concentration 0.12 mg/mL, (±)-28 marked st (static growth); for zone of inhibition at 250 µg/mL: Concentration 0.25 mg/mL, (±)-28 marked st (static growth, secondary growth of mycelium); for zone of inhibition at 500 µg/mL: Concentration 0.5 mg/mL; for zone of inhibition at 500 µg/mL / zone of inhibition at 1000 µg/mL / zone of inhibition at 2000 µg/mL: 10 μl per disk; for zone of inhibition at 1000 µg/mL: Concentration 1 mg/mL; for zone of inhibition at 2000 µg/mL: Concentration 2 mg/mL; for MIC: disk diffusion, small zones of inhibition with secondary mycelial growth, read-out: minimum inhibitory concentration
Procedure: Antifungal activity of the synthetic compounds using disk diffusion methods The compounds were tested for plant pathogens Aspergillus niger (strain VURV-F 822), which was received from Culture collection of microorganisms of Crop Research Institute (Prague, Czech […]
The synthetic compounds' antifungal activity was evaluated using a disk diffusion assay for testing filamentous fungi (CLSI M51-A) and broth microdilution antifungal susceptibility testing (EUCAST E.DEF 7.3.1; CLSI M38-A2)
[CLSI M51-A. Method for Antifungal Disk Diffusion Susceptibility Testing of Nondermatophyte Filamentous Fungi; Approved Guideline.CLSI document M51-A. Wayne, PA:
Clinical and Laboratory Standards Institute; 2010. This method is standardized for Altenaria, Aspergillus, Bipolaris, Fusarium, order Mucorales, etc.]
[CLSI M38-A2. 2008. Reference method for broth dilution antifungal susceptibility testing of filamentous fungi, 2nd ed Approved standard M38 -A2 Clinical and Laboratory Standards Institute, […]
Antifungal disk diffusion method
The solutions of fungicides and their analogues were diluted in dimethyl sulfoxide (DMSO) to […]
mg/mL for each test component. Sterile paper disks (ASPECT, Ukraine) were soaked with 10 μl of a solution of the appropriate fungicide from the highest concentration to the lowest.
The fungal strains were cultured on Petri dishes with Saburo dextrose agar (Condalab, Spain) and incubated at 25 °C for 5 days. Sterile Dulbecco's phosphate -buffered saline (DPBS) with 0,1 % Tween 20 was used to cover colonies of fungus for obtained conidia l suspension. Suspension of conidia was adjusted to inoculums 2×10^5 conidia/mL by sterile DPBS.
For antifungal disk diffusion test we used square Petri dishes (FALCON A Corning Brand, USA). The conidial suspension (0.5 mL) was added to Petri dishes with Saburo dextrose agar. The suspension was evenly distributed over the surface of the nutrient medium with a glass spatula.
After the surface of the inoculated medium was dry, the disks with different concentrations of testing compounds were added to the Petri dishes. Each compound was tested in triplicate at different concentrations. Growth control was a disk with 10 μl of DMSO, which was used for test […]
Petri dishes incubated at 25 °C for 72 h. The test compounds at known concentrati on into contact with an inoculated medium then exert a growth-inhibiting effect then a clear zone (the zone of […]
inhibition) appears around the test product. The diameter of a clear zone around the well is […]
If the fungal strain is susceptible to the antifungal agent, then a zone of inhibition appears on the agar plate. If it is resistant to the test compound, then no zone is evident. The size of the zone of inhibition is usually related to the level of antifungal activity present in the compound – a larger […]
The growth rate of all strains for each concentration of test compounds was determined visually and compared with the growth of control.
Broth microdilution antifungal susceptibility testing
A 96-well CELLSTAR plate (sterile, flat-bottomed, polystyrene, transparent) was used to determine MIC by broth microdilution method. Also, dabble straight RPMI-1640 medium with 2% glucose (2x RPMI 2%G) was used for this method. Spore suspension for plate inoculation was prepared according to the method described above for the disc diffusion method.
The each well in the plate contained 49 μl of medium (2x RPMI 2%G), 50 μl of inoculum (prepared in DPBS) and 1 μl of the stock solution of the test substance. Positive control wells contained 50 μl medium and 50 μl inoculum, and sterile control wells contained 50 μl medium and […]
To determine the MIC by the microdilution method, a series of stock solutions of fungicides and their analogues in DMSO with the following concentrations were prepared: 3.2 mg/mL, 1.6 mg/mL, […]
1 μl of the stock solutions of the test substances were added to each well to obtain the following […]
Immediately after adding all the components to the plates, the optical density was measured at […]

physchem = conditions: pH 7.4, LogD, pH 7.4
Procedure: Determination of Distribution Coefficient (LogD, pH 7.4)
coefficient (or LogD) is a logarithm of the ratio of drug concentrations in two immiscible solvents,
typically pH-buffered water and n-octanol. It is a measure of hydrophobic/hydrophilic properties of
a given molecule. The partition of test compounds is determined using a shake-flask method, which
involves mixing of a certain amount of the solute of interest in defined volumes of n-octanol and an
aqueous buffer of choice followed by equilibration of the mixture by incubation with efficient
mixing. Then, the distribution of the compounds in each solvent was controlled using LC-MS/MS.
Phosphate buffered saline, tablet (Sigma-Aldrich, USA; Cat # P4417)
Acetic acid (Enamine, Ukraine)
1.1 mL microtubes in microracks, pipettor tips (Thermo Scientific, USA).
National Scientific MicroTube™ Rack (Thermo Fisher Scientific, USA; Cat # TN094612R)
Gradient HPLC system (Shimadzu, Japan)
Triple quadrapole mass-detector API 3000 with TurboIonSpray Ion Source (AB Sciex, Canada)
MTR22 Multi Mix Rotator (UNICO, USA)
Laboratory Centrifuge, Sigma 4-15C, Qiagen (SIGMA GmbH, Germany)
Water purification system Millipore Milli-Q Gradient A10 (Millipore, France)
All measurements were performed using a Shimadzu Prominence HPLC system including a
vacuum degasser, gradient pumps, a reverse phase column, a column oven and an autosampler.
Mass spectrometric analysis was performed using an API 4000 QTRAP mass spectrometer from
Applied Biosystems/MDS Sciex (AB Sciex) with Turbo V ion source and TurboIonspray
interface. The TurboIonSpray ion source was used in both positive and negative ion modes.
Acquisition and analysis of the data were performed using Analyst 1.6.3 software.
Incubations were carried out in Eppendorf-type polypropylene microtubes in triplicates. A 2.5 μL
aliquot of 20 mM DMSO stock of a test compound was added into the previously mutually
saturated mixture containing 500 μL of PBS (pH 7.4) and 500 μL of octanol. The solution was
allowed to mix in a rotator for 1 hour at 30 rpm. Phase separation was assured by centrifugation for
2 min at 6000 rpm. The octanol phase was diluted 100-fold with 40% acetonitrile, and the aqueous
phase (PBS buffer) was diluted 10-fold with 40% acetonitrile. The samples (both phases) were
analyzed using an HPLC system coupled with a tandem mass spectrometer.
Calculations of the partition ratios were carried out using the equation below.
where: – peak area of the analyte in octanol phase
– peak area of the analyte in PBS buffer
– dilution coefficient for octanol phase dp – dilution coefficient for aqueous phase

[4] = Table S5, injection 1, octanol/PBS pH 7.4
[5] = Table S5, injection 2, octanol/PBS pH 7.4
[6] = Table S5, injection 3, octanol/PBS pH 7.4

CC(C)NCC(O)COc1cccc2ccccc12 (racemic) [Propranolol, (+,-) Propranolol hydrochloride]
remaining at 40 min, 2 µM ([1]; liver microsomes (pooled), pH 7.4, % Remaining, Table S7, 2st batch): 58%
remaining at 40 min, 2 µM (in vitro; microsomes, pH 7.4, % Remaining, Mean of 2): 68%
half-life at 2 µM (in vitro; microsomes, pH 7.4, t1/2): 70.9 min
half-life at 2 µM (in vitro; s9, pH 7.4, t1/2): ~356 min

O=C(Nc1ccccc1-c1ccc(Cl)cc1)c1cccnc1Cl [Boscalid, boscalid]
solubility kinetic at 2 h [2]: 11 µM (≈ 3.78 µg/mL)
D [4]: 3.62E+03
D [5]: 2.86E+03
D [6]: 4.07E+03
zone of inhibition at 4 µg/mL [3]: 7.5 ± 1 mm
zone of inhibition at 8 µg/mL [3]: 8.5 ± 1 mm
zone of inhibition at 16 µg/mL [3]: 10.5 ± 1.5 mm
zone of inhibition at 30 µg/mL [3]: 13.5 ± 2 mm
zone of inhibition at 60 µg/mL [3]: 17.8 ± 2.25 mm
zone of inhibition at 120 µg/mL [3]: 21.2 ± 2.25 mm
zone of inhibition at 250 µg/mL [3]: 20.2 ± 1 mm
zone of inhibition at 500 µg/mL [3]: 26 ± 2.5 mm
zone of inhibition at 1000 µg/mL [3]: 29 ± 1.5 mm
zone of inhibition at 2000 µg/mL [3]: 34.2 ± 0.75 mm
MIC [3]: 4 µg/mL (≈ 11.7 µM)

Cc1nc2c([nH]1)CCN(C(=O)c1ccc(NC(=O)C3CC4CC3(c3ccccc3)C4)cc1)c1ccccc1-2 (stereo not drawn) [Compound 26]
solubility kinetic at 2 h [2]: 14 µM (≈ 7.04 µg/mL)
solubility at 2 h ([2]; pH 7.4, Incubation 1): 15 µM (≈ 7.54 µg/mL)
solubility at 2 h ([2]; pH 7.4, Incubation 2): 14 µM (≈ 7.04 µg/mL)
solubility at 2 h ([2]; pH 7.4, Mean): 14 µM (≈ 7.04 µg/mL)
microsomal CLint at 2 μM ([1]; human liver microsomes (pooled), pH 7.4): 12 µL/min/mg
remaining at 40 min, 2 µM ([1]; liver microsomes (pooled), pH 7.4, % Remaining without cofactor, no NADPH cofactor, Table S6, 1st batch): 109%
remaining at […], 2 µM ([1]; liver microsomes (pooled), pH 7.4, % Remaining, Mean of 2, 7 min, Table S6, 1st batch): 81%
remaining at […], 2 µM ([1]; liver microsomes (pooled), pH 7.4, % Remaining, Mean of 2, 15 min, Table S6, 1st batch): 81%
remaining at 25 min, 2 µM ([1]; liver microsomes (pooled), pH 7.4, % Remaining, Mean of 2, 25 min, Table S6, 1st batch): 83%
remaining at 40 min, 2 µM ([1]; liver microsomes (pooled), pH 7.4, % Remaining, Table S6, 1st batch): 76%
k el at 2 µM ([1]; liver microsomes (pooled), pH 7.4, kel, Table S6, 1st batch): 8.33e-05 s⁻¹
half-life at 2 µM ([1]; liver microsomes (pooled), pH 7.4, t1/2, Table S6, 1st batch): 135 min
D [4]: 9.55E+03
D [5]: 1.25E+04
D [6]: 1.36E+04
logD at 1 h (physchem): 3.98

Cn1cc(C(=O)Nc2ccccc2-c2cc(F)c(F)c(F)c2)c(C(F)F)n1 [Fluxapyroxad, fluxapyroxad]
solubility kinetic at 2 h [2]: 25 µM (≈ 9.53 µg/mL)
D [4]: 3.37E+03
D [5]: 2.99E+03
D [6]: 3.24E+03
zone of inhibition at 4 µg/mL [3]: 8 ± 2 mm
zone of inhibition at 8 µg/mL [3]: 11.8 ± 1.25 mm
zone of inhibition at 16 µg/mL [3]: 14.5 ± 0.5 mm
zone of inhibition at 30 µg/mL [3]: 18.2 ± 0.4 mm
zone of inhibition at 60 µg/mL [3]: 22.2 ± 1.25 mm
zone of inhibition at 120 µg/mL [3]: 25.2 ± 1.5 mm
zone of inhibition at 250 µg/mL [3]: 30 ± 0.5 mm
zone of inhibition at 500 µg/mL [3]: 34.5 ± 0.75 mm
zone of inhibition at 1000 µg/mL [3]: 39.2 ± 2.25 mm
zone of inhibition at 2000 µg/mL [3]: 40.8 ± 1.6 mm
MIC [3]: 4 µg/mL (≈ 10.5 µM)

O=C(NC1CCN(CCCCC2(C(=O)NCC(F)(F)F)c3ccccc3-c3ccccc32)CC1)c1ccccc1-c1ccc(C(F)(F)F)cc1 [Lomitapide, lomitapide]
solubility kinetic at 2 h [2]: 3 µM (≈ 2.08 µg/mL)
D [4]: 5.98E+08
D [5]: 3.42E+05
D [6]: 6.79E+04

COC(=O)Nc1nc2ccc(C(=O)c3ccccc3)cc2[nH]1 [Mebendazole]
logD at 1 h (physchem): 2.82

Cc1nccn1CC1CCc2c(c3ccccc3n2C)C1=O (stereo not drawn) [Ondansetron, reference compound]
solubility at 2 h ([2]; pH 7.4, Incubation 1): 126 µM (≈ 37 µg/mL)
solubility at 2 h ([2]; pH 7.4, Incubation 2): 126 µM (≈ 37 µg/mL)
solubility at 2 h ([2]; pH 7.4, Mean): 126 µM (≈ 37 µg/mL)
PBS solubility, pH 7.4, Incubation 1 ([2]; Table S1, 1st batch): 121 µM
PBS solubility, pH 7.4, Incubation 2 ([2]; Table S1, 1st batch): 119 µM
